Assay results reported in patent US6287813A, “Antibiotic-based gene regulation system” (Cistronics Cell Technology GmbH, priority 1999, dated 2001).

Target: T1, Pip/PPIR ON (Streptomyces coelicolor, UniProt Q9ADN3)
T1 sequence (Q9ADN3 1-252): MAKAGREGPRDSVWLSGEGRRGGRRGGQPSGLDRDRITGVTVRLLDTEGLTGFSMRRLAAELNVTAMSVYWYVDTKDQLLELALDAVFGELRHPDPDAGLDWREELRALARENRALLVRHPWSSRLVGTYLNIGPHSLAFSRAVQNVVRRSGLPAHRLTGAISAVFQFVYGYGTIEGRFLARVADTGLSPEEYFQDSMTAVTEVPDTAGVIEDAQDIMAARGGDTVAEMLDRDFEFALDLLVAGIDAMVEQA
Type: cell-based
From the text: The Classical PIT/PPIR system belongs to the "OFF" family of regulation concepts since gene expression is activated upon withdrawal of the regulating antibiotic. However, in some applications such as gene therapy and tissue engineering an "ON" system which is induced upon addition of streptogramin antibiotics is more desirable. We therefore constructed a new Pip-based binary PION system which consists of a PPIR ON promoter and a set of two different transrepressors. PPIR ON consists of a PIR3 module containing 3 consecutive Pip binding elements (SEQ ID NO:21; Example 3) placed in front of the strong viral SV40 promoter. Transrepressors such as PIT3, which consists of a protein fusion between Pip and the KRAB silencing domain of the human kox-1 gene (Deuschle et al., 1995, Mol. Cell Biol. 15: 1907-1914) and PIT4, which is simply Pip expressed in a eukaryotic configuration, bind to PIR3 in front of PSV40 and block transcription of this promoter. Besides sterical transcription blocking the silencing domain of PIT3 can additionally downregulate PSV40 activity. […]
Table 9: Comparison of the regulation characteristics of the PipON systems. CHO-K1 cells were simultaneously cotransfected with the plasmids indicated and the SEAP readout (slope a of the p-nitrophenolphosphate-based light absorbance time courses) was determined in the presence and absence of pristinamycin 48 hr post transfection. […]
In order to assess the regulation potential of different streptogramin antibiotics, pMF225 or pMF150 encoding PIT4 were cotransfected with pMF208 (PPIR ON-SEAP) into CHO-K1 cells and the SEAP induction was measured 48 following transfection (as described above in Example 1) and addition of the following streptogramin antibiotics: (i) PI, the group B streptogramin component of pristinamycin; (ii) Pyostacin, the human oral antibiotic; (iii) Synercid, the first injectable semi-synthetic pristinamycin derivative effective against most multidrug resistant human pathogenic bacteria and (iv) virginiamycin used as growth promotant in livestock feed. […]

Substance: pristinamycin I [PI]
- SEAP readout (slope of the p-nitrophenolphosphate-based light absorbance time courses) (+PI (2 μg/ml) column, CHO + pMF208 + pMF225, 48 hr post transfection): 0.019 ± 0.002
- SEAP Production (slope of the p-nitrophenolphosphate-based light absorbance time courses) (CHO-K1 + pMF225 + pMF208, 2 μg/ml group B component, 48 hr post transfection): 0.65 ± 0.03
- Induction factor (PIT4-PPIR ON configuration (pMF225-pMF208)): 25
